The text below walks through data of the supplement of paper PMC11061612.

Common to all, as to test: combination Emax (second highest fraction inhibited in the dose matrix, 72 h); higher = more inhibition; extreme values may be limits of the assay
Assay [1] has as its system SNG-M (Endometrial Carcinoma). In outline: (§1)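 After 24 hours at 37°C and 5% CO2 in 1536-well plates, cells in DMEM/F12 or RPMI plus 10% FBS received two-drug dose matrices for 72 hours. Viability came from CellTiter-Glo 2.0 luminescence and was scaled as inhibition, anchored at 0 by vehicle wells and at 1 by blank wells. Combination Emax is taken as the second-highest inhibition in the matrix, and Bliss excess as the observed combination effect less EA + EB − EA·EB, with EA and EB the single-agent effects.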

In assay [2] the test system is HLE (Hepatocellular Carcinoma). In a few lines: as §1
Assay [3] concerns NCI-H1688 (Small Cell Lung Carcinoma). In a few lines: as §1
In a further assay the test system is MCF7 (Breast Carcinoma). In a few lines: as §1
Assay [4] has as its system HCT-116 (Colorectal Carcinoma). In a few lines: as §1
Assay [5] relates to KG-1 (Acute Myeloid Leukemia). In outline: as §1
The test system of assay [6] is D-283MED (Other Solid Carcinomas). In a few lines: as §1
In assay [7] the test system is SW948 (Colorectal Carcinoma). In outline:
as §1

For assay [8], the system named is HCC1143 (Breast Carcinoma). In a few lines: as §1
A further assay concerns D-392MG (Glioblastoma). In outline:
as §1

The subject of assay [9] is PA-TU-8902 (Pancreatic Carcinoma). In outline:
as §1

Assay [10] concerns SNU-61 (Colorectal Carcinoma). In a few lines:
as §1

The test system of assay [11] is YT (Other Blood Carcinomas). In a few lines: as §1
Assay [12] has as its system CAL-39 (Other Solid Carcinomas). In a few lines: as §1
The subject of assay [13] is TYK-nu (Ovarian Carcinoma). In a few lines: as §1
For the next assay, the system named is Saos-2 (Osteosarcoma). In outline: as §1
The test system of another assay is H4 (Low Grade Glioma). In outline: as §1
The test system of assay [14] is ETK-1 (Biliary Tract Carcinoma). In outline: as §1
The subject of assay [15] is U-118-MG (Low Grade Glioma). In a few lines: as §1
In assay [16] the test system is HOP-92 (Non-Small Cell Lung Carcinoma). In a few lines:
as §1

Regarding `CC1(C)CCC(CN2CCN(c3ccc(C(=O)NS(=O)(=O)c4ccc(NCC5CCOCC5)c([N+](=O)[O-])c4)c(Oc4cnc5[nH]ccc5c4)c3)CC2)=C(c2ccc(Cl)cc2)C1` [Venetoclax] + C[C@@H]1COCCN1C2=NC(=NC(=C2)C3(CC3)[S@](=N)(=O)C)C4=C5C=CNC5=NC=C4 [AZD6738] (first compound max 1 µM, 7x7, partner max 10 µM), the “combination Emax” value in assay [1] came to 0.894; in assay [2] it was 0.642; in [3] it was 0.451; in the assay on MCF7 (Breast Carcinoma), 0.705; in [4], 0.671; in assay [5], 0.917. Also, the “combination Emax” value in [6] stood at 0.954; in [7] it was 0.595; in [8] it was 0.821; with D-392MG (Glioblastoma) it was 0.339; in [9] it was 0.344; in assay [10], 0.43. The “combination Emax” value in assay [11] was 0.852; in assay [12] it was 0.397; in [13] it was 0.722; in the assay with Saos-2 (Osteosarcoma), 0.584; in the assay with H4 (Low Grade Glioma) it was 0.768; in assay [14], 0.723. The “combination Emax” value came out at 0.648 in [15] and 0.562 in assay [16].
Regarding `CC1(C)CCC(CN2CCN(c3ccc(C(=O)NS(=O)(=O)c4ccc(NCC5CCOCC5)c([N+](=O)[O-])c4)c(Oc4cnc5[nH]ccc5c4)c3)CC2)=C(c2ccc(Cl)cc2)C1` [Venetoclax] + C[C@@H](Nc1cc(F)cc(F)c1)c1cc(C(=O)N(C)C)cc2c(=O)cc(N3CCOCC3)oc12 [AZD8186] (first compound max 1 µM, 7x7, partner max 3 µM), the “combination Emax” value in assay [1] worked out at 0.655; in [2], 0.504; in [3] it was 0.191; in the assay on MCF7 (Breast Carcinoma), 0.255; in assay [4], 0.0935; in assay [5] it was 0.508. Also, the “combination Emax” value came to 0.615 in assay [6]; 0.264 in assay [7]; 0.246 in assay [8]; 0.139 with D-392MG (Glioblastoma); 0.115 in assay [9]; 0.103 in [10]. Besides, the “combination Emax” value in assay [11] was 0.631; in assay [12] it was 0.841; in [13], 0.495; in the assay with Saos-2 (Osteosarcoma) it was 0.34; with H4 (Low Grade Glioma), 0.383; in [14], 0.212. Moreover, the “combination Emax” value was 0.284 in assay [15] and 0.206 in assay [16].
Regarding `CC1(C)CCC(CN2CCN(c3ccc(C(=O)NS(=O)(=O)c4ccc(NCC5CCOCC5)c([N+](=O)[O-])c4)c(Oc4cnc5[nH]ccc5c4)c3)CC2)=C(c2ccc(Cl)cc2)C1` [Venetoclax] + Cc1cc2ncnn2cc1Nc1ncc2c(n1)n(C1CCOCC1)c(=O)n2C [AZD7648] (first compound max 1 µM, 7x7, partner max 10 µM), the “combination Emax” value worked out at 0.131 in assay [1]; 0.215 in [2]; 0.245 in assay [3]; 0.31 in the assay with MCF7 (Breast Carcinoma); 0.259 in assay [4]; 0.651 in assay [5]. Also, the “combination Emax” value in assay [6] came out at 0.673; in [7], 0.459; in assay [8], 0.253; in the assay on D-392MG (Glioblastoma), 0.178; in [9], 0.236; in assay [10], 0.154. For the same compound, the “combination Emax” value in [11] stood at 0.732; in assay [12], 0.247; in assay [13] it was 0.36; with Saos-2 (Osteosarcoma), 0.325; in the assay on H4 (Low Grade Glioma), 0.322; in [14] it was 0.253. The “combination Emax” value in [15] came to 0.412; in assay [16] it was 0.263.
Regarding `CC1(C)CCC(CN2CCN(c3ccc(C(=O)NS(=O)(=O)c4ccc(NCC5CCOCC5)c([N+](=O)[O-])c4)c(Oc4cnc5[nH]ccc5c4)c3)CC2)=C(c2ccc(Cl)cc2)C1` [Venetoclax] + Cn1cnc2c(F)c(Nc3ccc(Br)cc3Cl)c(C(=O)NOCCO)cc21 [Selumetinib] (first compound max 1 µM, 7x7, partner max 3 µM), the “combination Emax” value in assay [1] stood at 0.2; in [2], 0.191; in [3], 0.121; in the assay with MCF7 (Breast Carcinoma), 0.104; in [4], 0.506; in [5], 0.726. Also, the “combination Emax” value in [6] is 0.523; in [7], 0.577; in [8] it was 0.275; in the assay with D-392MG (Glioblastoma), 0.161; in assay [9], 0.26; in assay [10], 0.351. Also, the “combination Emax” value in [11] came to 0.429; in assay [12] it was 0.535; in assay [13], 0.464; in the assay on Saos-2 (Osteosarcoma), 0.299; with H4 (Low Grade Glioma), 0.232; in assay [14], 0.165. The figures for the “combination Emax” value in [15] and in [16] were 0.181 and 0.148, respectively.
